Values of other authors as cited in patent US20080171032A1, “DIETARY SUPPLEMENT COMPOSITION AND METHOD OF USE FOR THE TREATMENT AND PREVENTION OF OXIDATIVE STRESS” (priority 2007, published 2008).

Legend:
scleroderma = details: about 12 grams daily
dermatomyositis = details: two dermatomyositis patients, 15 to 20 grams daily
[1] = tested on: advanced glycation end-products (AGEs); details: 600 mg/day prior to blood draw
[2] = tested on: serum lipid oxidation products; details: human, tocotrienol supplementation at 40 mg/day, versus placebo

Molecule: CC1=C(/C=C/C(C)=C/C=C/C(C)=C/C=C/C=C(C)/C=C/C=C(C)/C=C/C2=C(C)C(=O)[C@@H](O)CC2(C)C)C(C)(C)C[C@H](O)C1=O [Astaxanthin]
- protection against oxygen-induced mitochondrial membrane damage (mitochondrial membranes): protection against oxygen-induced mitochondrial membrane damage

Molecule: Nc1ccc(C(=O)O)cc1 [PABA, 4-aminobenzoic acid]
- solubility in water: slight

Molecule: Nc1ccc(C(=O)[O-])cc1.[K+] [POTABA, potassium para-aminobenzoate]
- patients with mild, moderate or marked skin softening (scleroderma; 224 scleroderma patients): Ninety
- adverse events (scleroderma; scleroderma patients): no significant adverse events were reported
- clinical improvement (dermatomyositis): Clinical improvement was noted

Molecule: C/C(=C(\CCOP(=O)(O)O)SC(=O)c1ccccc1)N(C=O)Cc1cnc(C)nc1N [benfotiamine]
- AGE formation in the cells of test subjects [1]: significant decrease
- glycoxidation in the cells of test subjects [1]: significant decrease

Molecule: NCCC(=O)N[C@@H](Cc1cnc[nH]1)C(=O)O [carnosine]
- effect on cells approaching senescence (human fibroblasts; human fibroblasts approaching senescence supplemented with carnosine): markedly rejuvenated and their lifespan extended
- onset of cell senescence (human fibroblasts; human fibroblasts exposed to 50 mM carnosine): reduction in onset of cell senescence

Molecule: tocotrienol
- lowering of serum lipid oxidation products [2]: more effective in lowering serum lipid oxidation products than placebo
